Experiments:
[1] = target: T1, Fatty-acid amide hydrolase 1 (Rattus norvegicus, UniProt P97612); assay: Inhibitory constant against Fatty-acid amide hydrolase (FAAH) in rat liver; format: tissue-based
T1 sequence (P97612 whole entry): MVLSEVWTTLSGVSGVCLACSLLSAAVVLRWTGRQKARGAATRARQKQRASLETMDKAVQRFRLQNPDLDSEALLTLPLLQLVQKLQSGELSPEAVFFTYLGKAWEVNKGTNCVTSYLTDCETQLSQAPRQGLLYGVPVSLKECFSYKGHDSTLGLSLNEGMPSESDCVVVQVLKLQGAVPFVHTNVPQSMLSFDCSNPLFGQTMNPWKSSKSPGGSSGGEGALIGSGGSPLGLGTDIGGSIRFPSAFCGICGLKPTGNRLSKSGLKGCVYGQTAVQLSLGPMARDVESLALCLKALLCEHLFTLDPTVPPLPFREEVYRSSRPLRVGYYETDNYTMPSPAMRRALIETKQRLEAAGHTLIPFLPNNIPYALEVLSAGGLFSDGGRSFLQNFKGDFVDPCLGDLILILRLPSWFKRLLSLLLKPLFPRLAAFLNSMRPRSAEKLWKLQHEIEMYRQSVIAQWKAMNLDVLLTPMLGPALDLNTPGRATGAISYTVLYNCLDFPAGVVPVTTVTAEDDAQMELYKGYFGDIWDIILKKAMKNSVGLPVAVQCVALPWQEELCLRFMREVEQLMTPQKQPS

[2] = target: T1, Fatty-acid amide hydrolase 1; assay: Inhibitory concentration against Fatty-acid amide hydrolase (FAAH) in rat liver

Question: How did the Ki [1] turn out when `CCCCc1cc2ccccc2cc1CCCC(=O)C(F)(F)F` was run?
Answer: The Ki was 4400 nM.

Question: And the IC50 [2]?
Answer: The IC50 was 30100 nM.

Question: `O=C(CCCCCCc1ccccc1)C(F)(F)F` was tested. Which Ki [1] did it give?
Answer: Its Ki is 100 nM.

Question: And the IC50 [2]?
Answer: The IC50 was 450 nM.

Question: For `CCCCCCCCc1ccccc1CCCCCCCC(=O)C(F)(F)F`, which Ki [1] is on record?
Answer: Its Ki is 320 nM.

Question: And the IC50 [2]?
Answer: The IC50 was 2500 nM.

Question: What does the source list for `CCCCCCCC/C=C/CCCCCCCC(=O)C(F)(F)F`?
Answer: Ki [1]: 170 nM; IC50 [2]: 780 nM

Question: Which results are given for `CCCCCCCCCC(=O)C(F)(F)F`?
Answer: Ki [1]: 130 nM; IC50 [2]: 600 nM

Question: For `CCCCOC[C@H]1CC=CC[C@H]1COCCCC(=O)C(F)(F)F`, which Ki [1] is on record?
Answer: Its Ki is 570 nM.

Question: And the IC50 [2]?
Answer: The IC50 was 3000 nM.

Question: Which results are given for `CCCCCCCCCCCC(=O)C(F)(F)F`?
Answer: Ki [1]: 140 nM; IC50 [2]: 130 nM

Question: Which Ki [1] does the source give for `CCCCOC[C@@H]1CCCC[C@H]1COCCCC(=O)C(F)(F)F` here?
Answer: The Ki was 1200 nM.

Question: What about the IC50 [2] of the same compound?
Answer: Its IC50 is 9700 nM.

Question: Which results are given for `O=C(CCCCCc1ccccc1)C(F)(F)F`?
Answer: Ki [1]: 170 nM; IC50 [2]: 840 nM

Question: Which Ki [1] does the source give for `CCCCCCCC(=O)C(F)(F)F` here?
Answer: Its Ki is 1200 nM.

Question: And the IC50 [2]?
Answer: The IC50 was 6600 nM.

Question: Which results are given for `CCCCCCCC/C=C\CCCCCCCC(=O)C(F)(F)F`?
Answer: Ki [1]: 82 nM; IC50 [2]: 460 nM

Question: How did the Ki [1] turn out when `CCCCCCc1cccc(CCCCCCC(=O)C(F)(F)F)c1` was run?
Answer: Its Ki is 140 nM.

Question: And the IC50 [2]?
Answer: Its IC50 is 760 nM.

Question: Which results are given for `CCCCCCCC/C=C\CCCCCCCC(C)=O`?
Answer: Ki [1]: > 100000 nM; IC50 [2]: > 100000 nM

Question: `CCCCCCCCCCCCCC(=O)C(F)(F)F` was tested. Which Ki [1] did it give?
Answer: The Ki was 490 nM.

Question: What about the IC50 [2] of the same compound?
Answer: The IC50 was 2300 nM.

Question: What does the source list for `CCCCCCCCCCCCCCCCCC(=O)C(F)(F)F`?
Answer: Ki [1]: 240 nM; IC50 [2]: 1200 nM

Question: Which Ki [1] does the source give for `CCc1cc2cc3ccccc3cc2cc1CC(=O)C(F)(F)F` here?
Answer: Its Ki is > 100000 nM.

Question: And the IC50 [2]?
Answer: The IC50 was > 100000 nM.

Question: For `CCCCCC(=O)C(F)(F)F`, which Ki [1] is on record?
Answer: Its Ki is 26900 nM.

Question: What about the IC50 [2] of the same compound?
Answer: Its IC50 is 185000 nM.

Question: Which results are given for `O=C(CCCCCCCc1ccccc1)C(F)(F)F`?
Answer: Ki [1]: 25 nM; IC50 [2]: 120 nM

Question: What does the source list for `CCCCOC[C@@H]1CC=CC[C@H]1COCCCC(=O)C(F)(F)F`?
Answer: Ki [1]: 440 nM; IC50 [2]: 2400 nM

Question: How did the Ki [1] turn out when `CCCCCCCc1ccc(CCCCCCC(=O)C(F)(F)F)cc1` was run?
Answer: Its Ki is 96 nM.

Question: What about the IC50 [2] of the same compound?
Answer: The IC50 was 590 nM.

Question: What does the source list for `CCCCCCC(=O)C(F)(F)F`?
Answer: Ki [1]: 10700 nM; IC50 [2]: 52800 nM

Question: For `CCCCOC[C@H]1CCCC[C@H]1COCCCC(=O)C(F)(F)F`, which Ki [1] is on record?
Answer: Its Ki is 780 nM.

Question: And the IC50 [2]?
Answer: Its IC50 is 5700 nM.

Question: Which results are given for `CCCCCCc1ccccc1CCCCCC(=O)C(F)(F)F`?
Answer: Ki [1]: 2800 nM; IC50 [2]: 13100 nM

From ChEMBL document CHEMBL1132027, “Trifluoromethyl ketone inhibitors of fatty acid amide hydrolase: a probe of structural and conformational features contributing to inhibition” (Bioorg Med Chem Lett, 1999)
